Laboratory results as given in the NIST ThermoML archive (doi:10.1021/je0502400).

Assays:
[1] = mn = molality of the nth substance listed, in mol/kg; conditions: 298 K, 101 kPa, Liquid
[2] = molar heat capacity at constant pressure; mn = molality of the nth substance listed, in mol/kg; conditions: 298.15 K, 101 kPa, Liquid, Flow calorimetry

O=C([O-])CCC(=O)[O-].[Na+].[Na+] [disodium succinate] + O
Conditions	mass density, [1] [kg/m3]	molar heat capacity at constant pressure, [2] [J/K/mol]
m1 = 0.009952	998.141	75.32
m1 = 0.02038	999.243	75.31
m1 = 0.04187	1001.53	75.28
m1 = 0.06054	1003.53	75.26
m1 = 0.1003	1007.7	75.22
m1 = 0.2003	1018	75.2
m1 = 0.3001	1028.05	75.23
m1 = 0.5006	1047.46	75.44
m1 = 0.7497	1070.41	75.93
m1 = 1	1092.29	76.61
m1 = 1.494	1132.32	78.38
m1 = 1.999	1169.44	80.61

O=C([O-])C(=O)[O-].[K+].[K+] [potassium oxalate] + O
Conditions	mass density, [1] [kg/m3]	molar heat capacity at constant pressure, [2] [J/K/mol]
m1 = 0.01029	998.319	75.17
m1 = 0.01993	999.506	75
m1 = 0.03995	1001.9	74.67
m1 = 0.06118	1004.41	74.34
m1 = 0.1011	1009.21	73.71
m1 = 0.1971	1020.46	72.27
m1 = 0.2996	1032.09	70.86
m1 = 0.501	1054.2	68.3
m1 = 0.7483	1080.17	65.5
m1 = 0.9987	1105.27	63
m1 = 1.197	1124.39	61.21
m1 = 1.396	1142.79	59.54
m1 = 1.497	1151.71	58.76

[Cl-].[Na+] [sodium chloride] + O
Conditions	mass density, m1 = 0.9998 [kg/m3]	mass density, m1 = 1.999 [kg/m3]	mass density, m1 = 3 [kg/m3]	molar heat capacity at constant pressure, m1 = 0.9998 [J/K/mol]	molar heat capacity at constant pressure, m1 = 1.999 [J/K/mol]	molar heat capacity at constant pressure, m1 = 3 [J/K/mol]
[1]	1036.18	1072.22	1105.7	–	–	–
[2]	–	–	–	73.34	72.23	71.74

O=C([O-])CC(=O)[O-].[Na+].[Na+] [sodium malonate] + O
Conditions	mass density, [1] [kg/m3]	molar heat capacity at constant pressure, [2] [J/K/mol]
m1 = 0.0102	998.203	75.19
m1 = 0.02019	999.271	75.06
m1 = 0.04023	1001.44	74.8
m1 = 0.05997	1003.61	74.54
m1 = 0.09952	1007.82	74.04
m1 = 0.2049	1018.85	72.81
m1 = 0.3005	1028.55	71.8
m1 = 0.4985	1048.21	69.9
m1 = 0.7356	1070.79	68.01
m1 = 0.9746	1092.13	66.27
m1 = 1.481	1134.8	63.33
m1 = 1.995	1173.58	61.03
m1 = 2.993	1241.78	–
m1 = 3.991	1296.36	–

O=C([O-])C(=O)[O-].[Na+].[Na+] [sodium oxalate] + O
Conditions	mass density, [1] [kg/m3]	molar heat capacity at constant pressure, [2] [J/K/mol]
m1 = 0.009986	998.164	75.31
m1 = 0.01989	999.268	75.27
m1 = 0.03998	1001.48	75.22
m1 = 0.0603	1003.67	75.17
m1 = 0.09999	–	75.08
m1 = 0.1502	1013.28	75
m1 = 0.1996	1018.42	74.93
m1 = 0.2494	1023.55	74.88
